In PubChem BioAssay (NCI):
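Cultured in 96-well plates, cells were exposed to test compound for 48 hours across five concentrations. TGI: concentration producing complete growth inhibition.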

How the values were obtained:
Assay in all cases: inhibition of tumour cell growth, NCI panel, 48 h
[1] = tested on: MCF7 breast
[2] = tested on: A498 renal
[3] = tested on: MDA-N
[4] = tested on: HS 578T breast
[5] = tested on: UACC-62 melanoma
[6] = tested on: KM12 colon
[7] = tested on: HCT-116 colon
[8] = tested on: UACC-257 melanoma
[9] = tested on: HOP-92 NSCLC
[10] = tested on: RXF 393 renal
[11] = tested on: NCI-H460 lung
[12] = tested on: OVCAR-4 ovarian
[13] = tested on: M14 melanoma
[14] = tested on: MOLT-4 leukemia
[15] = tested on: NCI-H23 lung
[16] = tested on: BT-549 breast
[17] = tested on: TK-10 renal
[18] = tested on: IGROV1 ovarian
[19] = tested on: SK-MEL-28 melanoma
[20] = tested on: A549 NSCLC

Row | Structure (SMILES) | TGI [1] [µM] | TGI [2] [µM] | TGI [3] [µM] | TGI [4] [µM] | TGI [5] [µM] | TGI [6] [µM] | TGI [7] [µM] | TGI [8] [µM] | TGI [9] [µM] | TGI [10] [µM] | TGI [11] [µM] | TGI [12] [µM] | TGI [13] [µM] | TGI [14] [µM] | TGI [15] [µM] | TGI [16] [µM] | TGI [17] [µM] | TGI [18] [µM] | TGI [19] [µM] | TGI [20] [µM]
1 | CC[C@@H](C)[C@H](NC(=O)[C@H](Cc1ccccc1)NCC(F)(F)F)C(=O)OC(C)(C)C | > 100 | > 100 | > 100 | > 100 | > 100 | > 100 | > 100 | > 100 | > 100 | > 100 | > 100 | > 100 | > 100 | > 100 | > 100 | > 100 | > 100 | > 100 | > 100 | > 100
2 | NC(=Nc1ccccc1Cl)c1ccccc1N | > 100 | > 100 | > 100 | > 100 | > 100 | > 100 | > 100 | > 100 | 86.5 | > 100 | > 100 | > 100 | > 100 | > 100 | > 100 | > 100 | > 100 | > 100 | > 100 | > 100
3 | CCOC(=O)c1ccc(N=C/C=C(\Nc2ccc(C(=O)OCC)cc2)C23CC4CC(CC(C4)C2)C3)cc1 | > 100 | > 100 | > 100 | > 100 | > 100 | > 100 | > 100 | > 100 | > 100 | > 100 | > 100 | > 100 | > 100 | > 100 | > 100 | > 100 | > 100 | > 100 | > 100 | > 100
4 | O=C1OC(CCCN2CCCCC2)(c2ccccc2)CC12CCCC2 (stereo not given) | > 100 | 98.4 | > 100 | > 100 | > 100 | > 100 | > 100 | 48.7 | > 90.8 | > 100 | > 100 | > 100 | 34.3 | > 100 | > 100 | > 100 | > 100 | > 100 | 57 | > 100
5 | COc1ccc(CC2COc3cc(OC)cc(OC)c3C2=O)cc1 (stereo not given) | > 100 | > 100 | > 100 | 87.3 | > 100 | > 100 | 32.7 | > 100 | > 100 | > 100 | > 100 | 51.5 | 78.8 | > 100 | > 100 | > 100 | 82.3 | > 100 | > 100 | > 100
6 | CS(=O)(=O)Nc1ccc2ccccc2c1-c1c(NS(C)(=O)=O)ccc2ccccc12 | > 25 | > 25 | > 25 | > 25 | > 25 | > 25 | > 25 | > 25 | > 25 | > 25 | > 25 | > 25 | > 25 | > 25 | > 25 | > 25 | > 25 | > 25 | > 25 | > 25
7 | C#CCn1c(=O)c(I)cn(/C(=C/C(=O)OCC)C(=O)OCC)c1=O | 6.16 | 33.7 | 9.41 | > 100 | 10.5 | 34.8 | 3.59 | 8.11 | 3.37 | 12.2 | 49.8 | 21.4 | 3.61 | 1.9 | 45.5 | 26.2 | 1.67 | 38.3 | 26.2 | 36
8 | Cc1ccc(C(=O)N/N=C(\N=Nc2cccc([N+](=O)[O-])c2)c2ccc(N(CCC#N)CCC#N)cc2C)cc1 | > 68.1 | > 81.6 | > 78.4 | > 88.3 | > 100 | 61.6 | > 74.8 | 52.7 | > 100 | 60.7 | > 100 | > 100 | > 67.6 | > 82.6 | > 82.8 | > 78.5 | > 100 | > 100 | > 86.3 | > 100
9 | O=C(O)c1c2c(cc3c1CC(Cc1ccccc1)C3=O)CCC2 (stereo not given) | > 100 | > 100 | > 100 | > 100 | > 100 | > 100 | > 100 | > 100 | > 100 | > 100 | > 100 | > 100 | > 100 | > 100 | > 100 | > 100 | > 100 | > 100 | > 100 | 38
10 | CC(C)NC(=O)OCc1c2c(n(C)c1COC(=O)NC(C)C)-c1cc(Cl)c(Cl)cc1CC2 | 45.2 | 18.7 | > 100 | > 100 | > 100 | 81.7 | 66.9 | 86.8 | 70.9 | 94.8 | > 100 | > 100 | 66.6 | 60.3 | 87.9 | > 100 | 84.5 | 96 | > 100 | > 100
11 | Cc1ccc(C(=O)O)c(/C=C2\Cc3ccc(C)cc3C2=O)c1 | > 100 | > 100 | > 100 | > 100 | > 100 | > 100 | > 100 | > 100 | > 100 | > 100 | > 100 | > 100 | > 100 | > 100 | > 100 | > 100 | > 100 | > 100 | > 100 | > 100
12 | CCOC(=O)c1sc(=S)n(-c2ccc(Cl)cc2)c1-n1cc(-c2ccccc2)c(C#N)c1N | > 100 | 53.9 | > 100 | 14.5 | 85.9 | > 100 | > 100 | > 100 | 31.2 | 64.3 | > 100 | 22.7 | > 100 | > 100 | 70.6 | 48.1 | 24.4 | 40.5 | > 100 | 42.4
13 | CC(C)CCNC(=O)c1ccc(CNC(=O)/C=C/c2cccc(Oc3ccccc3)c2)cc1 | > 100 | > 100 | 38.3 | > 100 | 71.1 | > 100 | > 100 | > 100 | > 100 | 52 | > 100 | > 100 | > 100 | > 100 | > 100 | > 100 | 96.9 | > 100 | > 100 | > 100
14 | COc1ccc2c(c1)/C(=C\c1c(Cl)[nH]c3cc(C)c(OC)cc13)C(=O)N2 | 16.7 | 20.2 | 2.13 | > 50.7 | 15.9 | 5.06 | 6.36 | 20.6 | 22.4 | 7.67 | 8.7 | 16.2 | 5.63 | 13.7 | 2.9 | 7.95 | 15.9 | 5.3 | 29 | 18.2
15 | COC(=O)C1=C(OC(=O)/C(=C/c2ccccc2)c2ccc(Cl)cc2Cl)C(C(=O)OC)[C@@]2(O)[C@@H](C(=O)OC)[C@H](C)C[C@@H]1[C@@H]2C(=O)OC (stereo not given in full) | > 100 | > 100 | > 100 | > 100 | > 100 | > 100 | > 100 | > 100 | > 100 | > 100 | > 100 | > 100 | > 100 | > 100 | > 100 | > 100 | > 100 | > 100 | > 100 | > 100
16 | COc1c(=O)cc2cc[nH]c3cc[nH]c1c23 | 92.6 | > 100 | > 100 | > 100 | > 100 | > 100 | > 100 | > 100 | > 100 | > 100 | > 100 | > 100 | > 100 | > 100 | > 100 | > 100 | > 100 | > 100 | > 100 | > 100
